# Data published in ChEMBL document CHEMBL1201862, “PubChem BioAssay data set” (2004).
# Active and inactive are the calls of the source.
# How the values were obtained:
# [1] = target: T1, DNA dC->dU-editing enzyme APOBEC-3G (Homo sapiens, UniProt Q9HC16); type: functional
# [2] = target: Eukaryotic translation initiation factor 4H (Homo sapiens, UniProt Q15056); assay: eIF4H binding inhibition – biochemical, uHTS, fluorescence polarization, translation initiation inhibitor project, primary screen (AID 2012)
# [3] = target: Polyadenylate-binding protein 1 (Homo sapiens, UniProt P11940); assay: blockers of PABP interaction with poly(A) – biochemical, fluorescence polarization, […] (AID 2014)
# [4] = target: T2, DNA dC->dU-editing enzyme APOBEC-3A (Homo sapiens, UniProt P31941); assay: Dose Response confirmation of small molecule APOBEC3A DNA Deaminase Inhibitors via a fluorescence-based single-stranded DNA deaminase assay. [Related pubchem assays (depositor defined):AID493011, AID493024]; type: functional
# T2 sequence (P31941 whole entry): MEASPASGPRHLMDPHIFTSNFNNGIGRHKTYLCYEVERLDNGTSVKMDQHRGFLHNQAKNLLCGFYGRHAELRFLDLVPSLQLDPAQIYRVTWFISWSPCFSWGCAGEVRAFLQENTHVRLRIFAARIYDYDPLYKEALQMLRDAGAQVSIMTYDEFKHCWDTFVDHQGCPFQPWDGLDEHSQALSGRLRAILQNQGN
# [5] = target: T3, Hexokinase HKDC1 (Homo sapiens, UniProt Q2TB90); assay: inhibition of HKDC1 glucose phosphorylation – biochemical, W721R variant, dose response (AID 504729); type: functional
# T3 sequence (Q2TB90 whole entry): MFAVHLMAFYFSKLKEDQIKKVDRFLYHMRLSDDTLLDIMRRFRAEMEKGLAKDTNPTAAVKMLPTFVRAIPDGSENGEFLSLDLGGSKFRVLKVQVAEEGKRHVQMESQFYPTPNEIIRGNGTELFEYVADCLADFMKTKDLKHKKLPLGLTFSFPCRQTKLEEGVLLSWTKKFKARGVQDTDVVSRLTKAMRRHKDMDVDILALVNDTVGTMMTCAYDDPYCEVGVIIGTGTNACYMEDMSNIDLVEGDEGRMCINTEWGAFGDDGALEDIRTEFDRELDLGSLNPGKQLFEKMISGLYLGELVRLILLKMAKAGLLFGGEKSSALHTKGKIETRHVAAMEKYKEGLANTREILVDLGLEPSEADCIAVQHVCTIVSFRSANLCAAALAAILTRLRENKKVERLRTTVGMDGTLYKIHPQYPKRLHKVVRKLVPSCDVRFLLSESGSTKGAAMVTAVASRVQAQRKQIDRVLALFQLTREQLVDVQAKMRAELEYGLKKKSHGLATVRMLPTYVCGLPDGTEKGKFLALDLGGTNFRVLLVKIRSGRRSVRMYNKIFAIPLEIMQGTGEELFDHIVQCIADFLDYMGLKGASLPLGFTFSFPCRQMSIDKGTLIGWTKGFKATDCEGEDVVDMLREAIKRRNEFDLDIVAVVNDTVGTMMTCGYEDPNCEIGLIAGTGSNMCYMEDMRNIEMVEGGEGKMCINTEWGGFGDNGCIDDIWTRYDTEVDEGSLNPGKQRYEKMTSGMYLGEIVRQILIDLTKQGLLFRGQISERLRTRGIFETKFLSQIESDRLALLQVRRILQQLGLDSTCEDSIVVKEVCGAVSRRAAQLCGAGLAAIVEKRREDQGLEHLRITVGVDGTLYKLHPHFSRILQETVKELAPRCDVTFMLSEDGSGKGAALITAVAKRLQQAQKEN
# [6] = target: T4, Hexokinase-1 (Homo sapiens, UniProt P19367); assay: HK1 enzyme activation by HKDC1 hits – biochemical, selectivity assay for HKDC1 activator project, dose response (AID 504762); type: functional
# T4 sequence (P19367 whole entry): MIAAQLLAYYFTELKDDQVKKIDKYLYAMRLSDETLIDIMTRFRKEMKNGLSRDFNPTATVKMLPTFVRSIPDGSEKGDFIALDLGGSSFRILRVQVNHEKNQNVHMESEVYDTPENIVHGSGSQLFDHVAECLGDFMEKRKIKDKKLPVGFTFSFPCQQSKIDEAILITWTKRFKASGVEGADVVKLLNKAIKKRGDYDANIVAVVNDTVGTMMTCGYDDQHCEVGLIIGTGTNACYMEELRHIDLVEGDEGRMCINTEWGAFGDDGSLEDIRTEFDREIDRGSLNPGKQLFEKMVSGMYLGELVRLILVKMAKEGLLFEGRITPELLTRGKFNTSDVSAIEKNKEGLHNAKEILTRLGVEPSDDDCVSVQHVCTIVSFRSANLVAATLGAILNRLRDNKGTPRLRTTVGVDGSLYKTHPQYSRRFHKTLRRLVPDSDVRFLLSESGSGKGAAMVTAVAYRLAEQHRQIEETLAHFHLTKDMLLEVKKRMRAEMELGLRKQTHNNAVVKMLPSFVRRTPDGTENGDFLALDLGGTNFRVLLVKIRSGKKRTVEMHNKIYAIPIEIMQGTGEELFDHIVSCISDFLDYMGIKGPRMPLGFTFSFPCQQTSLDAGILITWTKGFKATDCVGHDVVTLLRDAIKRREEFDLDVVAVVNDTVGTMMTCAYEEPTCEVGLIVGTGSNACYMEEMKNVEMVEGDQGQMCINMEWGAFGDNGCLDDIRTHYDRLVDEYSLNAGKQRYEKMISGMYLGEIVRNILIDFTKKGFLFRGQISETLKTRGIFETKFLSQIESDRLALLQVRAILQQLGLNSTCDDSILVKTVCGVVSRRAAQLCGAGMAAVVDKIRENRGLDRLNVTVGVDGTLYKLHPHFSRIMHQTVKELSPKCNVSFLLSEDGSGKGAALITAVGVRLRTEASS
# [7] = target: Nonstructural protein 1 (Influenza A virus, UniProt Q194T2); type: functional, Influenza A virus (A/California/07/2009(H1N1))
# Sequence of Nonstructural protein 1 (Q194T2 whole entry): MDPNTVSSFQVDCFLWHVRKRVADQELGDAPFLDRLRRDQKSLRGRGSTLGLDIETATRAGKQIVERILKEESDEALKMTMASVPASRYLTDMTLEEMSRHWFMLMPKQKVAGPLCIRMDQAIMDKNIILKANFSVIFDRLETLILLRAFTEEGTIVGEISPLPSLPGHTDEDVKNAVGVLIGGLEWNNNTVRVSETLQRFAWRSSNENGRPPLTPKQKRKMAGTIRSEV
# [8] = cells; type: functional, cell-based
# [9] = cells; type: functional
# [10] = THP-1 cell cytotoxicity, dose response, cytotoxicity control for non-replicating M. tuberculosis project (AID 489025); type: functional
# [11] = cells; type: functional, cell-based; remark: listed apart in the source
# [12] = HepG2 cell cytotoxicity, dose response, cytotoxicity control for non-replicating M. tuberculosis project (AID 489018); type: functional; conditions: Mycobacterium tuberculosis
# [13] = Vero E6 cell cytotoxicity, dose response, cytotoxicity control for non-replicating M. tuberculosis project, secondary assay (AID 492998); type: functional, VeroE6; conditions: Vero C1008
# [14] = microbe, parasite or virus in culture; type: functional; conditions: Mycobacterium tuberculosis
# [15] = target: Eukaryotic translation initiation factor 4E (Mus musculus, UniProt P63073); assay: blockers of eIF4G binding by eIF4E – biochemical, TR-FRET, dose response (AID 855); type: functional;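 also: potency for disrupting eIF4E binding to eIF4GI seen as loss of FRET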
# Sequence of Eukaryotic translation initiation factor 4E (P63073 whole entry): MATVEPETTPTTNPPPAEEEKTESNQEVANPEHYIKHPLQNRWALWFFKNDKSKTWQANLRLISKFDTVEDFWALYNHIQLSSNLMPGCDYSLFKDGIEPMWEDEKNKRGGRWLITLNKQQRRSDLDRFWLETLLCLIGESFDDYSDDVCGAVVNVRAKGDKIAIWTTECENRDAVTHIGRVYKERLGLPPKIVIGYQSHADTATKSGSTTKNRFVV
# [16] = target: T5, Voltage-gated N-type calcium channel alpha-1B subunit/Amyloid beta A4 precursor protein-binding family A member 1 (Homo sapiens, UniProt Q00975+Q02410); type: protein assay
# T5 sequence (Q00975 whole entry): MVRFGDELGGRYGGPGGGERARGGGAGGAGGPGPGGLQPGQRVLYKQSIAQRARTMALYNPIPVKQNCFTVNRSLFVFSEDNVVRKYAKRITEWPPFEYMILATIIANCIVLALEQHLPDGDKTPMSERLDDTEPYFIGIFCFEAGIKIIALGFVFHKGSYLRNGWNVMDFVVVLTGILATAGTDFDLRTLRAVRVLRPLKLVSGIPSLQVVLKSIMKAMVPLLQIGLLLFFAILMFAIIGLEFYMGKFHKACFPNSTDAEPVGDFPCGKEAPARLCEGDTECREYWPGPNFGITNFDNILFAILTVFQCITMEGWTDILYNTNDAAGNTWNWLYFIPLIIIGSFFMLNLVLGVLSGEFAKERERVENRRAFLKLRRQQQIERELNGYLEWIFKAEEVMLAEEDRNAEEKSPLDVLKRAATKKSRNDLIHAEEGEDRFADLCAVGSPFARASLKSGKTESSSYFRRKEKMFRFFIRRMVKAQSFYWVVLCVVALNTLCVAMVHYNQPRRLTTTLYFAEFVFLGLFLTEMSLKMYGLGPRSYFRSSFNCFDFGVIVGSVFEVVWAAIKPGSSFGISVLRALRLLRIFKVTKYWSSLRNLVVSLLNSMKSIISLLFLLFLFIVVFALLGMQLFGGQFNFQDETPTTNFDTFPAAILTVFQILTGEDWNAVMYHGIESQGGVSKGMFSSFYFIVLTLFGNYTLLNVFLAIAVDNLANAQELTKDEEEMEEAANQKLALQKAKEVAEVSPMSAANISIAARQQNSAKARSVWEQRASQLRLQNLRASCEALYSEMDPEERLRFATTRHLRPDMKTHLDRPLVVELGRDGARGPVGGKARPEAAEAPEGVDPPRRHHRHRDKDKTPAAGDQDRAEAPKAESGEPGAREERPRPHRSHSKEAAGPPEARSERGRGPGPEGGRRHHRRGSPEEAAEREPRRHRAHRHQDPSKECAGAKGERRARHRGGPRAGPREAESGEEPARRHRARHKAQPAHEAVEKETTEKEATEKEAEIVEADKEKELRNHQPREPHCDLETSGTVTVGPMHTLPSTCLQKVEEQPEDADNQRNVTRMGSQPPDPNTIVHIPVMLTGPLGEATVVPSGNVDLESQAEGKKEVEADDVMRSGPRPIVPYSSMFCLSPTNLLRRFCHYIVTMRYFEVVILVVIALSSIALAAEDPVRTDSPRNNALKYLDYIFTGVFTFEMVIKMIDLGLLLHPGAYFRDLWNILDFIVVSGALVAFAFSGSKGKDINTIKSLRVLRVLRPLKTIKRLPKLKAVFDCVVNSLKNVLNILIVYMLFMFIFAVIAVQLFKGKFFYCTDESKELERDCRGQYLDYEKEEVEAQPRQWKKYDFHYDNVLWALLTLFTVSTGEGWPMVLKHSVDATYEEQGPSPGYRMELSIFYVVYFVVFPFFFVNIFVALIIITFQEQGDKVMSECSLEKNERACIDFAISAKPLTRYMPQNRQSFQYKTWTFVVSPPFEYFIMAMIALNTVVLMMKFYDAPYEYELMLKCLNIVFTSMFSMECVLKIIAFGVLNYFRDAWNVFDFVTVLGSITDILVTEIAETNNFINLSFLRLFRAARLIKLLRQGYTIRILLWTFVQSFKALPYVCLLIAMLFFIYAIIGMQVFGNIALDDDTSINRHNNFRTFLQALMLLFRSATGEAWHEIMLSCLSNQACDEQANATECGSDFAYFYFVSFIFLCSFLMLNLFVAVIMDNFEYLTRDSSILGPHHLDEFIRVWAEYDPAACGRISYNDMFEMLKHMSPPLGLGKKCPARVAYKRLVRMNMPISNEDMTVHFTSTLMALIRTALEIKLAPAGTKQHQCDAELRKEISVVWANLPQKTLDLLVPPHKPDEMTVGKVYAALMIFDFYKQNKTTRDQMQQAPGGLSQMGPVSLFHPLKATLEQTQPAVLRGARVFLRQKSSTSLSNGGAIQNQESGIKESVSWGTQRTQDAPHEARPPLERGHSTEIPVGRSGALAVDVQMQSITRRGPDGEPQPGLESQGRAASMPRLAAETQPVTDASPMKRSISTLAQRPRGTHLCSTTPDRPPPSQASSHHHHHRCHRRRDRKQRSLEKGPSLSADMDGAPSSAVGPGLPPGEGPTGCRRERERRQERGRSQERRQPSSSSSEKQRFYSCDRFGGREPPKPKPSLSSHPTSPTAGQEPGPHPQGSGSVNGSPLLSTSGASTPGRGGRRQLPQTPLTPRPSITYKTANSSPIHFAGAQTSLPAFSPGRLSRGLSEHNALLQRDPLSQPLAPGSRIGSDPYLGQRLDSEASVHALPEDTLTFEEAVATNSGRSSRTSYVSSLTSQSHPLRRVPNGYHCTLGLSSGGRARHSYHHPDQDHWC
# T5 sequence (Q02410 whole entry): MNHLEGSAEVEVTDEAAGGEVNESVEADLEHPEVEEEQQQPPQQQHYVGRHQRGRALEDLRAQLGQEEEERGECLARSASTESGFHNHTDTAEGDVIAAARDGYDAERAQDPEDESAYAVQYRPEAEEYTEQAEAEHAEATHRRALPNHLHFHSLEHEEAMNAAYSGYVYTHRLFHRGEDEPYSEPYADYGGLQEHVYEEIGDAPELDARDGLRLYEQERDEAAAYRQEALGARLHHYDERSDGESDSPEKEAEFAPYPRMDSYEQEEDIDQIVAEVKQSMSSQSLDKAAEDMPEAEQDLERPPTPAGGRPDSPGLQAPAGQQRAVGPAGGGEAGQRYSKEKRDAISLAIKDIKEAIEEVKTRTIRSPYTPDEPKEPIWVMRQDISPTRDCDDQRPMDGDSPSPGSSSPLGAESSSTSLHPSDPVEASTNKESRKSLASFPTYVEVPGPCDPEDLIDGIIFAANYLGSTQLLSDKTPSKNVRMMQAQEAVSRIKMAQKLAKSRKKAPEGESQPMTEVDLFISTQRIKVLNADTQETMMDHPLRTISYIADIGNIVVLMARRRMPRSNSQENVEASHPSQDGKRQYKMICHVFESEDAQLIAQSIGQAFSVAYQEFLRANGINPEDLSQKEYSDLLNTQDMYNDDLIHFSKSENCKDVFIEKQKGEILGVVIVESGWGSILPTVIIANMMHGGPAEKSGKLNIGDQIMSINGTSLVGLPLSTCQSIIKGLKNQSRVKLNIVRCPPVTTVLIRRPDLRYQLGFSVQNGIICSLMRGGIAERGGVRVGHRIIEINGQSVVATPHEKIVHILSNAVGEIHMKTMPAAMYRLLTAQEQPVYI
# [17] = target: Large T antigen (Simian virus 40, UniProt P03070); type: functional, Betapolyomavirus macacae;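 also: Confirmatory-stage PubChem screen for compounds that inhibit SV40 T antigen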
# [18] = target: T2, DNA dC->dU-editing enzyme APOBEC-3A; assay: A3A deaminase inhibition for selectivity – biochemical, dose response (AID 504722); type: functional
# [19] = target: T5, Voltage-gated N-type calcium channel alpha-1B subunit/Amyloid beta A4 precursor protein-binding family A member 1; type: protein assay; remark: listed apart in the source
# [20] = target: Bcl-2-related protein A1 (Mus musculus, UniProt Q07440); type: functional;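 also: confirmatory dose–response counterscreen on Bfl-1, used to check hits from a UBC13 polyubiquitin inhibitor campaign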
# Sequence of Bcl-2-related protein A1 (Q07440 whole entry): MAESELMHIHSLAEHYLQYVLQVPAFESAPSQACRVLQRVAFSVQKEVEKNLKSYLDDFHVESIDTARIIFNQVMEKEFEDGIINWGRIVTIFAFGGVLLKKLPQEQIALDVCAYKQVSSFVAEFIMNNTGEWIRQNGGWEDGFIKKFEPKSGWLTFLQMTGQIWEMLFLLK
# [21] = target: T6, Ubiquitin-conjugating enzyme E2 N (Homo sapiens, UniProt P61088); type: functional
# T6 sequence (P61088 whole entry): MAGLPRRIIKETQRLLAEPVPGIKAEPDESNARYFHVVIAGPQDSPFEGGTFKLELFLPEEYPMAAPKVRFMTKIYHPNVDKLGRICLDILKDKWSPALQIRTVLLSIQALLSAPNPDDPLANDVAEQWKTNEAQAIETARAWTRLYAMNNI
# [22] = target: T7, Rac GTPase-activating protein 1 (Homo sapiens, UniProt Q9H0H5); assay: blockers of MgcRacGAP-driven Rac1 GTP hydrolysis – biochemical, ADP Hunter fluorescence, primary and confirmatory, confirmation (AID 624330); type: functional
# T7 sequence (Q9H0H5 whole entry): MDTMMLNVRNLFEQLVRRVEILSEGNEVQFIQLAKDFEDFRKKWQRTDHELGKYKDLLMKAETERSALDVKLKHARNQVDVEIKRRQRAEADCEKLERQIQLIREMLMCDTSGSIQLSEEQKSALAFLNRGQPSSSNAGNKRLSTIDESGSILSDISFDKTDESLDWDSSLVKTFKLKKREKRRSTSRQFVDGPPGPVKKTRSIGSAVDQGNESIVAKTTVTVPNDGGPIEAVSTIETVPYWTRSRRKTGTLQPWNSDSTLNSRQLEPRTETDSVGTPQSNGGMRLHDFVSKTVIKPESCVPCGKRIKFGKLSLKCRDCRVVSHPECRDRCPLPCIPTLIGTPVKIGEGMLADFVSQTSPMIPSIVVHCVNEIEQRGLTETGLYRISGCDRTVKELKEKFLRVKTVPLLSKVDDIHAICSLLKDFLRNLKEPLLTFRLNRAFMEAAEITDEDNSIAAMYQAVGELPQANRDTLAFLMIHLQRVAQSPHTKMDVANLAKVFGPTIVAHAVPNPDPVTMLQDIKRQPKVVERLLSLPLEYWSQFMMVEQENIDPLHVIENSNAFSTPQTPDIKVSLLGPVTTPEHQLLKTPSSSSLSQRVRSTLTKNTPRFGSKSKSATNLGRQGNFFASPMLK
# [23] = target: T6, Ubiquitin-conjugating enzyme E2 N; type: functional; remark: listed apart in the source
# [24] = target: T8, Runt-related transcription factor 1/Core-binding factor subunit beta (Homo sapiens, UniProt Q01196+Q13951); assay: disruptors of Runt domain/CBFb-SMMHC interaction – biochemical, FRET, Cerulean-Runt, Venus-CBFb-SMMHC, uHTS, […] (AID 1434); type: protein assay
# T8 sequence (Q01196 whole entry, the tested form may be a part): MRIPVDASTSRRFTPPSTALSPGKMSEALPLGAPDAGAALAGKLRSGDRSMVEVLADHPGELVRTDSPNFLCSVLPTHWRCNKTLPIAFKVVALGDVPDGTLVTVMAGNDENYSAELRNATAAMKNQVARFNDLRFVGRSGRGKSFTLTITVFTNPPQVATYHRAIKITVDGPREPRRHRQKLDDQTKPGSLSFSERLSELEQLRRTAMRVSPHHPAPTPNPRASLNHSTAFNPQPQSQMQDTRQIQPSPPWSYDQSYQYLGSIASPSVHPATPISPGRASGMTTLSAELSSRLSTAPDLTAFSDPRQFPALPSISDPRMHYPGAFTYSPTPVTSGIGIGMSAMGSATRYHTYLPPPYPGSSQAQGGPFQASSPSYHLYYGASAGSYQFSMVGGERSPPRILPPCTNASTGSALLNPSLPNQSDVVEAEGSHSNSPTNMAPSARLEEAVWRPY
# T8 sequence (Q13951 whole entry, the tested form may be a part): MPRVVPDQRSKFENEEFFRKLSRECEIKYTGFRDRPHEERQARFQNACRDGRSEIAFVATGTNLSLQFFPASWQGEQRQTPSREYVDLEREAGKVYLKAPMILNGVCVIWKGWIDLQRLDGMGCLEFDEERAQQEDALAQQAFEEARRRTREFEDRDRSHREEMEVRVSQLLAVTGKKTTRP
# [25] = target: T8, Runt-related transcription factor 1/Core-binding factor subunit beta; assay: Runt domain/CBFb-SMMHC interaction disruptors – biochemical, TR-FRET (AID 1438); type: protein assay
# [26] = target: T9, Corticotropin-releasing factor receptor 2/Corticotropin-releasing factor-binding protein (Homo sapiens, UniProt P24387+Q13324); assay: activators of CRF receptor 2 with binding protein – uHTS hits, confirmation (AID 602473); type: functional; conditions: read-out: EC50_Mean
# T9 sequence (Q13324 whole entry): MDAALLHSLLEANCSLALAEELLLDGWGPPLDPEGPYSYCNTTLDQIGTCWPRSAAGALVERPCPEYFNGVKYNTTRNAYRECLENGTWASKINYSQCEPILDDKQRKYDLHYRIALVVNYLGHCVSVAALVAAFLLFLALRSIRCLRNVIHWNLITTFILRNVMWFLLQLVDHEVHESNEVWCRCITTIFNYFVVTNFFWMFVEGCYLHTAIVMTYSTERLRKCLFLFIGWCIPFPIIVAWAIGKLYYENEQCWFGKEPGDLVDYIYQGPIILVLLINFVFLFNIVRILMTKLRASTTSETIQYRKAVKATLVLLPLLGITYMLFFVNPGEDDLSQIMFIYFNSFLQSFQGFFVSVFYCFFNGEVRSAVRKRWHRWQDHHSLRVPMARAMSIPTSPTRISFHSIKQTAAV
# T9 sequence (P24387 whole entry): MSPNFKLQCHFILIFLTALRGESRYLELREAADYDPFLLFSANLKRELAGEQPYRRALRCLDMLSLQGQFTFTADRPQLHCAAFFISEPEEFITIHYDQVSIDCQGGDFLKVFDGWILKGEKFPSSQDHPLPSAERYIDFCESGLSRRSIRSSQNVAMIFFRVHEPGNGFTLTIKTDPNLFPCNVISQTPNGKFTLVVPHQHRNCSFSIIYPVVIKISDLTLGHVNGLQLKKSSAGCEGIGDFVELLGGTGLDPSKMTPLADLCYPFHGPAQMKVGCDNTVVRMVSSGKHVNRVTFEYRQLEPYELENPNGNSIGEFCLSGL
# [27] = target: Estrogen receptor beta (Homo sapiens, UniProt Q92731);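 also: recombinant ER-beta bound to coactivator SRC1 peptide in presence of estradiol agonist; inhibitors block coactivator peptide binding and lower the FRET signal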
# [28] = target: T1, DNA dC->dU-editing enzyme APOBEC-3G; assay: Dose Response confirmation of small molecule APOBEC3G DNA Deaminase Inhibitors via a fluorescence-based single-stranded DNA deaminase assay. [Related pubchem assays (depositor defined):AID493012, AID493028]; type: functional
# T1 sequence (Q9HC16 whole entry): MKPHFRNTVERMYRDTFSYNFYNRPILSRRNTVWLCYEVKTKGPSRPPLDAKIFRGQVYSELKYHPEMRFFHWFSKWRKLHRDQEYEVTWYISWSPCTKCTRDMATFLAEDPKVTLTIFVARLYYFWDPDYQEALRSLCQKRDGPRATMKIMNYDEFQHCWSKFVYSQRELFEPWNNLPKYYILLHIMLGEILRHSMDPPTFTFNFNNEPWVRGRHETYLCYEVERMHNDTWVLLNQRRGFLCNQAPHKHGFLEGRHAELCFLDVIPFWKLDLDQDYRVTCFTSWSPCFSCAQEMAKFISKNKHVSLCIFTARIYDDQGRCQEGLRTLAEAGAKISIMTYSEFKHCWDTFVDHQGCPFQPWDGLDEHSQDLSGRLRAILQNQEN
smiles,measurement,setting,value
COC(=O)C1=C(C)N(Cc2ccccc2)C(NCCCCO)=N[C@H]1CCc1ccccc1,IC50,[1],5.42 µM (active)
same,IC50,[2],> 100 µM (inactive)
same,IC50,[3],18.9 µM (active)
same,IC50,[4],3.51 µM (active)
O=C(c1ccccc1)c1nnc(-c2ccccc2)cc1O,IC50,[5],> 80 µM (inactive)
same,EC50,[6],> 80 µM (inactive)
CNc1nc(-c2ccccn2)nnc1-c1ccccc1,IC50,[7],1.66 µM (active)
same,EC50,[8],12.8 µM (active)
same,IC50,[9],11.1 µM (active)
same,CC50,[10],19.1 µM (active)
same,EC50,[11],> 350 µM (not active)
same,CC50,[12],> 20 µM (active)
same,CC50,[13],19.9 µM (active)
same,CC50,[14],13.3 µM (active)
COc1ccc(N2CSC3=C(C#N)C(c4cccs4)CC(=O)N3C2)cc1 (centres undefined),IC50,[15],> 64 µM (inactive)
same,IC50,[16],8.68 µM (active)
same,IC50,[17],10.7 µM (active)
same,IC50,[18],74.1 µM (active)
same,IC50,[19],> 50 µM (inactive)
C#CCOCCOCCOCCNc1nc(N2CCN(C(=O)[C@H](CCCCN)n3cc([C@@H](N)C(C)CC)nn3)CC2)nc(N2CCN(C(=O)[C@H](CCCCN)n3cc([C@@H](N)CC(C)C)nn3)CC2)n1 (some centres undefined),IC50,[20],> 20 µM (inactive)
same,IC50,[21],7.14 µM (active)
same,IC50,[22],114 µM (active)
same,IC50,[23],8.4 µM (active)
Cc1cccc(S(=O)(=O)c2c(N)n(Cc3ccco3)c3nc4ccccc4nc23)c1,IC50,[24],> 100 µM (inactive)
same,IC50,[25],> 100 µM (inactive)
same,EC50,[26],> 53 µM (inactive)
same,IC50,[27],> 50 µM (not active)
Cc1cc(-c2nnc(S)n2/N=C/C=C/c2ccccc2)[nH]n1,IC50,[28],2.35 µM (active)
same,IC50,[18],> 100 µM (inactive)
COc1cc(/C=N\NC(=O)c2sc(N)nc2C)cc(OC)c1OC,IC50,[20],> 20 µM (inactive)
same,IC50,[21],0.386 µM (active)
same,IC50,[23],0.477 µM (active)
CC[n+]1cccc(-c2nc3ccccc3s2)c1,IC50,[1],3.66 µM (active)
same,IC50,[4],3.65 µM (active)
